# Patent publication US20220220106A1, “QUINOLINE COMPOUNDS AND PHARMACEUTICAL COMPOSITIONS AND USES THEREOF” (Academy of Military Medical Sciences, priority 2019, published 2022)
# Where two headings read alike, the source gives them in different places.
# Assays:
# [1] = system: Enterovirus 71 (EV71) H strain; experiment: In vitro anti-EV71 activity (antiviral activity in RD cells, CellTiter-Glo); assay type: cell-based; conditions: for IC50: Enterovirus A, 96 h; for in vitro anti-EV71 activity, in words: EV71, RD cells
# Method in brief: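 RD cells infected with 100TCID50 EV71 in DMEM+2% FBS, with compound in 10-point three-fold dilutions, cultured 4 days at 37° C. Cell viability by CellTiter-Glo luminescence; inhibition rate relative to cell control fitted to S-curve for IC50. TD50 derived likewise; SI=TD50/IC50.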
# mTOR kinase = biological target: T1, mTOR kinase (Homo sapiens, UniProt P42345); experiment: In vitro inhibitory activity on mTOR kinase (TR-FRET, GFP-4E-BP1 substrate); assay type: biochemical; conditions: for IC50: 0.5 μg/mL mTOR, 0.4 μM GFP-4E-BP1, 3 μM ATP
# T1 construct: purchased Thermo Fisher PV4753
# Experimental: Preparation of Reaction Buffers:
# Basic buffer composition: 50 mM (mmol/L) HEPES (pH 7.5), 1 mM EGTA, 0.01% Tween-20, 10 mM MnCl2, 2 mM DTT (diluted from 500 mM before used).
# (2) mTOR kinase buffer solution: 1650 μL of 2.5×mTOR kinase buffer solution was composed of 1640.2 μL of 1× basic buffer and 9.8 μL of mTOR (0.21 mg/mL stock solution), and the final concentration was 0.5 μg/mL.
# (3) Detection buffer solution: 3960 μL of 2× detection buffer solution was composed of 3797.1 μL of TR-FRET buffer diluent (purchased from Thermo Fisher, catalog number: PV3574), 4.5 μL of Tb-anti-p4E-BP1 antibody (3.49 μM stock solution, purchased from Thermo Fisher, catalog number: PV4757) and 158 μL of EDTA (500 mM stock solution), and the final concentrations were 2 nM Tb-anti-p4E-BP1 antibody and 10 mM EDTA.
# (1) 20 μL of 100% DMSO solution containing 5 mM compound to be tested was added to a 96-well plate.
# (2) The compound was serially diluted 3 times in DMSO.
# (3) 1 μL of the compound in the previous step was taken, diluted with 19 μL of mTOR kinase buffer, and transferred to another 96-well plate.
# (4) 4 μL of mTOR kinase solution (purchased from Thermo Fisher, catalog number: PV4753) was added to a 384-well plate.
# (5) 2 μL of the compound in G was taken out and added to the 384-well plate with mTOR kinase, and incubated at room temperature for 15 minutes.
# (6) 4 μL of substrate solution was added to initiate the reaction.
# The final concentrations of mTOR reaction solution were: 0.5 μg/mL mTOR, 0.4 μM GFP-4E-BP1, 3 μM ATP.
# The final concentration of the DMSO solution was 1%.
# (7) Incubation was performed for 60 minutes at room temperature.
# (8) 10 μL of detection buffer was added. The final concentrations were 2 nM Tb-anti-p4E-BP1 antibody and 10 mM EDTA.
# (9) Incubation was performed for 30 minutes at room temperature.
# (10) TR-FRET value was read on MD5 multi-mode plate reader (Molecular Devices). The excitation wavelength was 340 nm, the emission wavelength 1 was 495 nm, and the emission wavelength 2 was 520 nm. The ratio of 520 nm/495 nm readings was calculated as TR-FRET value.
# IC50 of compound was fitted by nonlinear regression equation:
# Y=Bottom+(Top-Bottom)/(1+10^((LogIC50-X)*HillSlope));
# X: common logarithm value of compound concentration; Y: TR-FRET value (520 nm/495 nm).
# [2] = EV71 H strain, RD cells, 4 days, CellTiter-Glo, read-out: IC50
# T1 sequence (P42345 1360-2549 limits assumed): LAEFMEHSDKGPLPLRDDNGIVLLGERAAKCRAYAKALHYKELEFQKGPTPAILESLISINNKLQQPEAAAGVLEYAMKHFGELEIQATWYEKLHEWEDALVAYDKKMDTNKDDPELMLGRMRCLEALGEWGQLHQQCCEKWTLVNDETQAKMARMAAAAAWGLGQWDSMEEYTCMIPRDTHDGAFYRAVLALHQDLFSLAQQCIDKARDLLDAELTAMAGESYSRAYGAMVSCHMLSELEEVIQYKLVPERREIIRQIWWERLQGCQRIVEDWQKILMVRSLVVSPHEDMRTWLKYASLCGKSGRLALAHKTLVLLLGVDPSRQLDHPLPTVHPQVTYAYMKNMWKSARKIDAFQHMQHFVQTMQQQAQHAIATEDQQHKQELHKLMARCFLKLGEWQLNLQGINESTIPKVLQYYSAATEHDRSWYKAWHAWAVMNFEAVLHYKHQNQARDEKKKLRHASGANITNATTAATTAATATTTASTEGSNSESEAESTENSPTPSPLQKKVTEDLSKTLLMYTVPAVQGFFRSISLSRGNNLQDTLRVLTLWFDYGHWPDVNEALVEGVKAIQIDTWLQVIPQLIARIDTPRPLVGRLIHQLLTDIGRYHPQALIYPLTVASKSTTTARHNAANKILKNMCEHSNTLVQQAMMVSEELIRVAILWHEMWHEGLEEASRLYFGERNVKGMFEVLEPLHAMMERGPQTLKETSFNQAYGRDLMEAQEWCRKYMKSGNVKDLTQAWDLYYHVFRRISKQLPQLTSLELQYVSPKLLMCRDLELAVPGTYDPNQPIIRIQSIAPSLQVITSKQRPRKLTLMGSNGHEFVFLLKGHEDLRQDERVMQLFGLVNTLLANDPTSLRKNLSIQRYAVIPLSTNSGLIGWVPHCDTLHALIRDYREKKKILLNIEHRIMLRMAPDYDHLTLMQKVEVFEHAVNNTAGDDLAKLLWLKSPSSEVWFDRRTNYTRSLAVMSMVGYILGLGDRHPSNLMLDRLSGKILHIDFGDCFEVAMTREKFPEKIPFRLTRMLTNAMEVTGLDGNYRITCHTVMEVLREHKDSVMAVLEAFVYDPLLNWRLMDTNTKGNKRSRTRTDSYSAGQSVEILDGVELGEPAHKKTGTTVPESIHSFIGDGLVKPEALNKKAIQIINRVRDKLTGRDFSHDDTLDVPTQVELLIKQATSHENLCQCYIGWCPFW
SMILES,"IC50 [1, 2] [nM]","inhibitory activity on mTOR kinase, in words (mTOR kinase)",IC50 (mTOR kinase) [nM],"IC50 ([1]; EV71, RD) [nM]","in vitro anti-EV71 activity, in words [1]"
"O=C1Cc2cc(-c3ccc4ncc5ccc(=O)n(-c6cccc(C(F)(F)F)c6)c5c4c3)ccc2N1 [HTL-7-04, 9-[5-(2-oxo)indolyl]-2-oxo-1-[3-(trifluoromethyl)phenyl]-1,2-dihydrobenzo[h][1,6]naphthyridine]",10500 ± 560,moderate inhibitory activity,240,,
"O=C(Nc1ccc(-c2ccc3ncc4ccc(=O)n(-c5cccc(C(F)(F)F)c5)c4c3c2)cn1)Oc1ccccc1 [HTL-7-15, 9-[3-(6-phenoxyamido)pyridyl]-2-oxo-1-[3-(trifluoromethyl)phenyl]-1,2-dihydrobenzo[h][1,6]naphthyridine]",,,25,90 ± 20,
"O=C(Nc1ccc(-c2ccc3ncc4ccc(=O)n(-c5cccc(C(F)(F)F)c5)c4c3c2)cn1)OCc1ccccc1 [HTL-7-14, 9-[3-(6-benzyloxyamido)pyridyl]-2-oxo-1-[3-(trifluoromethyl)phenyl]-1,2-dihydrobenzo[h][1,6]naphthyridine]",23700 ± 1020,moderate inhibitory activity,306,,
"NC(=O)/C=C/c1ccc2ncc3oc(=O)n(-c4cccc(C(F)(F)F)c4)c3c2c1 [HTL-6-30, (E)-8-(2-carbamoyl-vinyl)-1-[3-(trifluoromethyl)phenyl]oxazolo[5,4-c]quinolin-2(1H)-one]",3700 ± 210,better inhibitory activity,47.6,,moderate inhibitory activity
"CC(=O)/C=C/c1cnc2ccc(-c3ccc(C)nc3)cc2c1Nc1cccc(C(F)(F)F)c1 [HTL-2-38, (E)-6-[3-(6-methyl)pyridyl]-4-[3-(trifluoromethyl)phenyl]aminoquinoline-3-butenone]",2850 ± 1200,weak inhibitory activity,1010,,moderate anti-EV71 activity
"NC(=O)c1ccc(-c2ccc3ncc4oc(=O)n(-c5cccc(C(F)(F)F)c5)c4c3c2)cc1 [HTL-5-21, 8-(4-carbamoyl)phenyl-1-[3-(trifluoromethyl)phenyl]oxazolo[5,4-c]quinolin-2(1H)-one]",2000 ± 300,better inhibitory activity,15.1,,moderate inhibitory activity
"O=c1ccc2cnc3ccc(-c4cccnc4F)cc3c2n1-c1cccc(C(F)(F)F)c1 [HTL-6-48, 9-[3-(2-fluoro)pyridyl]-2-oxo-1-[3-(trifluoromethyl)phenyl]-1,2-dihydrobenzo [h][1,6]naphthyridine]",59,,31.5,,high activity
"O=C(Cc1ccccc1)Nc1ccc(-c2ccc3ncc4ccc(=O)n(-c5cccc(C(F)(F)F)c5)c4c3c2)cn1 [HTL-7-10, 9-[3-(6-phenylacetylamino)pyridyl]-2-oxo-1-[3-(trifluoromethyl)phenyl]-1,2-dihydrobenzo[h][1,6]naphthyridine]",390 ± 180,,34.8,,
"O=c1ccc2cnc3ccc(C4=CCC5(CC4)OCCO5)cc3c2n1-c1cccc(C(F)(F)F)c1 [HTL-7-13, 9-(1,4-dioxa-spiro[4.5]dec-7-en-8-yl)-2-oxo-1-[3-(trifluoromethyl)phenyl]-1,2-dihydrobenzo[h][1,6]naphthyridine]",26300 ± 12900,,86.1,,
"O=c1ccc2cnc3ccc(-c4ccc(N5CCOCC5)nc4)cc3c2n1-c1cccc(C(F)(F)F)c1 [HTL-7-18, 9-[3-(6-morpholin-4-yl)pyridyl]-2-oxo-1-[3-(trifluoromethyl)phenyl]-1,2-dihydrobenzo[h][1,6]naphthyridine]",1800 ± 1170,,22.7,,
"Nc1cccc(Nc2ccc3ncc4ccc(=O)n(-c5cccc(C(F)(F)F)c5)c4c3c2)n1 [HTL-6-12, 9-[2-(6-aminopyridyl)]imino-2-oxo-1-[3-(trifluoromethyl)phenyl]-1,2-dihydrobenzo[h][1,6]naphthyridine]",1230 ± 220,,68.2,,moderate activity
"CCCC(=O)Nc1ccc(-c2ccc3ncc4ccc(=O)n(-c5cccc(C(F)(F)F)c5)c4c3c2)cn1 [HTL-7-05, 9-[3-(6-butyrylamino)pyridyl]-2-oxo-1-[3-(trifluoromethyl)phenyl]-1,2-dihydrobenzo[h][1,6]naphthyridine]",130 ± 60,,39,,
"COc1cc(-c2ccc3ncc4ccc(=O)n(-c5cccc(C(F)(F)F)c5)c4c3c2)cnc1N [HTL-7-19, 9-[3-(6-amino-5-methoxy)pyridyl]-2-oxo-1-[3-(trifluoromethyl)phenyl]-1,2-dihydrobenzo[h][1,6]naphthyridine]",45 ± 10,excellent inhibitory activity,7.58,,
"O=c1ccc2cnc3ccc(-c4cc[nH]n4)cc3c2n1-c1cccc(C(F)(F)F)c1 [HTL-6-50, 9-[(1H)-3-pyrazolyl]-2-oxo-1-[3-(trifluoromethyl)phenyl]-1,2-dihydrobenzo[h][1,6]naphthyridine]",> 200000,moderate inhibitory activity,159,,
"CN(C)c1ccc(-c2ccc3ncc4ccc(=O)n(-c5cccc(C(F)(F)F)c5)c4c3c2)cn1 [HTL-7-16, 9-[3-(6-N,N-dimethyl)pyridyl]-2-oxo-1-[3-(trifluoromethyl)phenyl]-1,2-dihydrobenzo[h][1,6]naphthyridine]",90 ± 10,excellent inhibitory activity,8.91,,
"O=c1ccc2cnc3ccc(-c4ccc(N5CCCC5)nc4)cc3c2n1-c1cccc(C(F)(F)F)c1 [HTL-7-20, 9-[3-(6-pyrrolidinyl)pyridyl]-2-oxo-1-[3-(trifluoromethyl)phenyl]-1,2-dihydrobenzo[h][1,6]naphthyridine]",100 ± 10,,11.3,,
"COc1ccc(CC(=O)Nc2ccc(-c3ccc4ncc5ccc(=O)n(-c6cccc(C(F)(F)F)c6)c5c4c3)cn2)cc1 [HTL-7-11, 9-{3-[6-(4-methoxy)phenylacetylamino]pyridyl}-2-oxo-1-[3-(trifluoromethyl)phenyl]-1,2-dihydrobenzo[h][1,6]naphthyridine]",95 ± 7,,32.5,,
"CCCCC(=O)Nc1ccc(-c2ccc3ncc4ccc(=O)n(-c5cccc(C(F)(F)F)c5)c4c3c2)cn1 [HTL-7-08, 9-[3-(6-valerylamino)pyridyl]-2-oxo-1-[3-(trifluoromethyl)phenyl]-1,2-dihydrobenzo[h][1,6]naphthyridine]",200 ± 20,,76.6,,
"CCC(=O)Nc1ccc(-c2ccc3ncc4ccc(=O)n(-c5cccc(C(F)(F)F)c5)c4c3c2)cn1 [HTL-6-45, 9-[3-(6-propionylamino)pyridyl]-2-oxo-1-[3-(trifluoromethyl)phenyl]-1,2-dihydrobenzo[h][1,6]naphthyridine]",27 ± 10,,29.2,,
"O=c1ccc2cnc3ccc(-c4ccc5ncccc5c4)cc3c2n1-c1cccc(C(F)(F)F)c1 [HTL-6-47, 9-(6-quinolyl)-2-oxo-1-[3-(trifluoromethyl)phenyl]-1,2-dihydrobenzo[h][1,6]naphthyridine]",250 ± 230,excellent inhibitory activity,6.17,,
"O=c1ccc2cnc3ccc(-c4ccc(F)nc4)cc3c2n1-c1cccc(C(F)(F)F)c1 [HTL-7-01, 9-[3-(6-fluoro)pyridyl]-2-oxo-1-[3-(trifluoromethyl)phenyl]-1,2-dihydrobenzo[h][1,6]naphthyridine]",70 ± 10,,28.8,,
"Cc1ncccc1-c1ccc2ncc3ccc(=O)n(-c4cccc(C(F)(F)F)c4)c3c2c1 [HTL-6-49, 9-[3-(2-methyl)pyridyl]-2-oxo-1-[3-(trifluoromethyl)phenyl]-1,2-dihydrobenzo[h][1,6]naphthyridine]",70 ± 10,,11.9,,
